Laboratory results: the supplement of paper PMC10307832

Tests used:
Experiment in all cases: relative viability (nuclei count vs DMSO), 5 days (fraction); higher = more cells survive
[1] = compound: COc1cccc2cc(-c3nc([C@H]4CC[C@H](C(=O)O)CC4)n4ncnc(N)c34)[nH]c12 [OSI-027] + Nc1ncn([C@H]2C[C@H](O)[C@@H](CO)O2)c(=O)n1 [Decitabine] (partner 2 µM)
Outline: (§1)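 Medians of duplicate plates are given as relative viability. That measure is the nuclei count in treated wells divided by the count in vehicle wells. Counts were taken on 4× images of lung cancer cell lines in 1536-well plates, 5 days after pin-tool dosing the day after seeding with one drug alone or a fixed anchor-drug dose plus five library-drug doses (not always all listed) in √10 steps.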

[2] = compound: COc1cccc2cc(-c3nc([C@H]4CC[C@H](C(=O)O)CC4)n4ncnc(N)c34)[nH]c12 [OSI-027] + Cc1nc(NC(=O)N2CCC[C@H]2C(N)=O)sc1-c1ccnc(C(C)(C)C(F)(F)F)c1 [Alpelisib] (partner 2 µM)
Outline: as §1

[3] = compound: CCCS(=O)(=O)Nc1ccc(F)c(C(=O)c2c[nH]c3ncc(-c4ccc(Cl)cc4)cc23)c1F [Vemurafenib] + Nc1nc2[nH]cc(CCc3ccc(C(=O)N[C@@H](CCC(=O)O)C(=O)O)cc3)c2c(=O)[nH]1 [Pemetrexed] (partner 0.2 µM)
Outline: as §1

[4] = compound: Cc1nc(NC(=O)N2CCC[C@H]2C(N)=O)sc1-c1ccnc(C(C)(C)C(F)(F)F)c1 [Alpelisib] + NC(=O)Nc1cc(-c2cccc(F)c2)sc1C(=O)N[C@H]1CCCNC1 [AZD7762] (partner 0.2 µM)
Outline: as §1

Row | Cell Line | relative viability ([1]; first compound 0.01 µM) | relative viability ([1]; first compound 0.03162 µM) | relative viability ([1]; first compound 0.1 µM) | relative viability ([1]; first compound 0.3162 µM) | relative viability ([1]; first compound 1 µM) | relative viability ([2]; first compound 0.01 µM) | relative viability ([2]; first compound 0.03162 µM) | relative viability ([2]; first compound 0.1 µM) | relative viability ([2]; first compound 0.3162 µM) | relative viability ([2]; first compound 1 µM) | relative viability ([3]; first compound 0.3162 µM) | relative viability ([3]; first compound 1 µM) | relative viability ([4]; first compound 0.04 µM) | relative viability ([4]; first compound 0.1265 µM) | relative viability ([4]; first compound 0.4 µM) | relative viability ([4]; first compound 1.265 µM) | relative viability ([4]; first compound 4 µM) | relative viability ([3]; first compound 0.03162 µM) | relative viability ([3]; first compound 0.1 µM)
1 | PC-3 [JPC-3] | 0.769 | 0.841 | 0.768 | 0.684 | 0.628 | 1.06 | 1.03 | 0.986 | 0.802 | 0.43 | 0.92 | 1.25 | 0.808 | 0.755 | 0.781 | 0.601 | 0.516 | – | –
2 | NCI-H1651 | 0.629 | 0.553 | 0.576 | 0.561 | 0.515 | 1.1 | – | 0.882 | 0.713 | 0.559 | 0.508 | 0.579 | 0.458 | 0.442 | 0.535 | 0.536 | 0.359 | 0.555 | 0.626
3 | NCI-H460 | 0.544 | 0.502 | 0.541 | 0.456 | 0.241 | 0.541 | 0.404 | 0.314 | 0.168 | 0.119 | 0.065 | 0.0749 | 0.542 | 0.638 | 0.746 | 0.513 | 0.404 | 0.0604 | 0.058
4 | LOU-NH91 | 0.804 | 0.825 | 0.73 | 0.718 | 0.613 | 0.692 | 0.689 | 0.616 | 0.558 | 0.47 | 0.337 | 0.382 | 0.735 | 0.608 | 0.663 | 0.556 | 0.543 | 0.372 | 0.464
5 | RERF-LC-KJ | 0.617 | 0.664 | 0.668 | 0.538 | 0.426 | 0.698 | 0.793 | 0.641 | 0.507 | 0.361 | 0.441 | 0.48 | 0.871 | 0.99 | 1.5 | 0.762 | 0.724 | 0.501 | 0.486
6 | EKVX | 0.643 | 0.329 | 0.363 | 0.284 | 0.28 | 0.731 | 0.849 | 0.73 | 0.625 | 0.351 | 0.405 | 0.442 | 0.868 | 0.662 | 0.675 | 0.636 | 0.533 | 0.379 | –
7 | NCI-H441 | 0.266 | 0.263 | 0.261 | 0.293 | 0.259 | 0.716 | 0.718 | 0.686 | 0.636 | 0.273 | 0.249 | 0.27 | 1.28 | 1.14 | 1.35 | 1.22 | 1.07 | 0.23 | 0.295
8 | NCI-H1395 | 0.696 | 0.742 | 0.684 | 0.645 | 0.532 | 1.04 | 1.14 | 0.974 | 0.93 | 0.757 | 0.757 | 0.814 | 0.438 | 0.379 | 0.404 | 0.393 | 0.392 | 0.679 | 0.744
9 | 201T | 0.885 | 0.832 | 0.842 | 0.887 | 0.8 | 0.998 | 1 | 0.963 | 0.919 | 0.545 | 0.322 | 0.283 | 0.616 | 0.636 | 0.546 | 0.477 | 0.469 | 0.375 | 0.378
10 | LC-2-ad | 0.827 | 0.842 | 0.779 | 0.735 | 0.578 | 0.886 | 0.876 | 0.723 | 0.74 | 0.304 | 0.249 | 0.276 | 0.812 | 0.874 | 0.863 | 0.684 | 0.583 | 0.252 | 0.254
11 | NCI-H1793 | 0.457 | 0.493 | 0.436 | 0.329 | 0.259 | 0.831 | 0.589 | 0.466 | 0.307 | 0.189 | 0.749 | 1.12 | 0.473 | 0.332 | 0.383 | 0.374 | 0.23 | 0.797 | 0.602
12 | LCLC-103H | 0.748 | 0.732 | 0.707 | 0.598 | 0.783 | 0.852 | 0.922 | 0.991 | 0.877 | 0.767 | 0.377 | 0.456 | 0.72 | 0.872 | 0.631 | 0.61 | 0.591 | 0.495 | 0.515
13 | NCI-H1944 | 0.427 | 0.46 | 0.405 | 0.443 | 0.303 | 0.855 | 0.796 | 0.764 | 0.607 | 0.301 | 0.564 | 0.569 | 0.452 | 0.6 | 0.605 | 0.3 | 0.344 | 0.596 | –
14 | NCI-H650 | 0.303 | 0.317 | 0.288 | 0.3 | 0.276 | 1.05 | 1.1 | 0.749 | 0.679 | 0.389 | 0.551 | 0.702 | 1.08 | 0.769 | 0.931 | 0.773 | 0.837 | 0.909 | 0.913
